What all share (test): Cell growth inhibitory effect, cell counting kit 8, 6 days
Common to all, as to assay type: cell-based

For experiment [1], the system named is HuH28, a human liver cancer cell line. The settings on record: 144 h, HuH28 cells, 6 days incubation. The source says: (§1) Cell growth inhibitory effect on human mesothelioma, human liver cancer, human ovarian cancer, and […]
(§2) NCI-H226 cells, a human mesothelioma cell line (ATCC, CRL-5826), NCI-H322 cells, a human lung cancer cell line (the European Collection of Authenticated Cell Cultures, 95111734), OVTOKO cells, a human ovarian cancer cell line (JCRB cell bank, JCRB1048) and HuH28, a human liver cancer cell line (JCRB cell bank, JCRB0426) were each subcultured by keeping the cell density under 80% in a RPMI1640 culture medium with 10% fetal bovine serum (FBS). NCI-H226 cells, NCI-H322 cells and SSP-25 cells were each suspended in the RPM11640 culture medium mentioned above, and plated to a 96-well flat-bottom plate at 500 cells/well in each well, and incubated at 37° C. in an incubator with 5% CO2 for one day. After the incubation, the evaluation of cell growth inhibitory activity was started. OVTOKO cells were suspended in the RPMI1640 culture medium mentioned above, and plated to a 96-well flat-bottom plate at 250 cells/well in each well, and incubated it at 37° C. in an incubator with 5% CO2 for one day. After the incubation, the evaluation of the cell growth inhibitory activity was started. The next day, a test compound was serially diluted to 5 times of its final concentration in the RPM11640 culture medium mentioned above, and the diluted solution was added to each well. In this case, the final concentration of DMSO in each well was adjusted to 0.1%. After the test compound was added, cells were incubated at 37° C. in an incubator with 5% CO2 for 6 days. At the addition of the test compound and 6 days after the addition, the cell counting measurement was performed using a cell counting kit 8 (made by DOJINDO) according to a protocol equivalent to DOJINDO's recommendation. A reagent contained in the kit was added to each plate and color reaction was performed for 2 or 3 hours at 37° C. in an incubator with 5% CO2. After the reaction, an absorbance at wavelength of 450 nm was measured using a microplate reader. A growth inhibition rate was calculated according to the following formula, from which the concentration of a test compound at which cell growth was inhibited by 50% (GI50 value) was determined.

For experiment [2], the system named is NCI-H226 cells, a human mesothelioma cell line. The settings on record: 144 h, 6 days incubation.
Description: as §1, §2

In experiment [3] the test system is NCI-H322 cells, a human lung cancer cell line. Conditions: 144 h, 6 days incubation.
Description: as §1, §2

The mark [4] stands for this setting: group 100 nmol/L to 1 μmol/L (upper bound given in μmol/L).

With `C=CC(=O)NC1CCOc2c1ccc(Oc1ccc(C(F)(F)F)cc1)c2F` (racemic) [Compound 31, N-[8-Fluoro-7-{4-(trifluoromethyl)phenoxy}chroman-4-yl]acrylamide], the figures for the concentration for 50% growth inhibition (GI50) in experiment [1], in experiment [2] (group less than 100 nmol/L) and in experiment [3] were under 3 µM, under 0.1 µM and under 1 µM, respectively.
Taken in the same sequence, the figures for `C=CC(=O)NC1CCOc2c1ccc(Oc1ccc(C(F)(F)F)cc1)c2OC` (racemic) [Compound 33, N-[8-Methoxy-7-{4-(trifluoromethyl)phenoxy}chroman-4-yl]acrylamide] were under 3 µM, under 0.1 µM and under 1 µM.
Taken in the same sequence, the figures for `C=CC(=O)NC1COc2c(Oc3ccc(C(F)(F)F)cc3)cccc2C1=O` (racemic) [Compound 40, N-[4-Oxo-8-{4-(tolyloromethyl)phenoxy}chroman-3-yl]acrylamide] were under 3 µM, under 0.1 µM and under 1 µM.
In the case of `C=CC(=O)N[C@@H]1c2ccc(Oc3ccc(C(F)(F)F)cc3)cc2OC[C@H]1F` (relative stereo) [Compound 22, trans-N-[3-Fluoro-7-{4-(trifluoromethyl)phenoxy}chroman-4-yl]acrylamide], the values for the GI50 in experiment [1], in experiment [2] (group less than 100 nmol/L) and in experiment [3] were under 3 µM, under 0.1 µM and under 1 µM, respectively.
With `C=CC(=O)N[C@H]1CC[C@@H](Oc2cccc(Cl)c2)c2ncccc21` (relative stereo) [Compound 68, cis-N-{8-(3-Chlorophenoxy)-5,6,7,8-tetrahydroquinolin-5-yl}acrylamide], the GI50 in experiment [1] is under 3 µM; in experiment [2] (group less than 100 nmol/L), under 0.1 µM; in experiment [3], under 1 µM.
The like results for `C=CC(=O)N[C@H]1CC[C@@H](Oc2ccc(C(F)(F)F)cc2)c2nc(OC)ccc21` (relative stereo) [Compound 179, cis-N-[2-Methoxy-8-{4-(trifluoromethyl)phenoxy}-5,6,7,8-tetrahydroquinolin-5-yl]acrylamide] were, in that order, under 3 µM, under 0.1 µM and under 1 µM.
The like results for `C=CC(=O)N[C@H]1CC[C@@H](Oc2ccc(C(F)(F)F)cc2)c2nc(C3CC3)ccc21` (relative stereo) [Compound 185, cis-N-[2-Cyclopropyl-8-{4-(trifluoromethyl)phenoxy}-5,6,7,8-tetrahydroquinolin-5-yl]acrylamide] were, in that order, under 3 µM, under 0.1 µM and under 1 µM.
Consider `C=CC(=O)N[C@H]1CC[C@@H](Oc2ccc(C(F)(F)F)c(F)c2)c2nc(Cl)ccc21` (relative stereo) [Compound 187, cis-N-[2-Chloro-8-{3-fluoro-4-(trifluoromethyl)phenoxy}-5,6,7,8-tetrahydroquinolin-5-yl]acrylamide], for which the figures for the 50% growth inhibitory concentration (GI50) in experiment [1], in experiment [2] (group less than 100 nmol/L) and in experiment [3] were under 3 µM, under 0.1 µM and under 1 µM, respectively.
`C=CC(=O)N[C@H]1CC[C@@H](Oc2ccc(C(F)(F)F)cn2)c2nc(Cl)ccc21` (relative stereo) [Compound 189, cis-N-(2-Chloro-8-[{5-(trifluoromethyl)pyridin-2-yl}oxy]-5,6,7,8-tetrahydroquinolin-5-yl)acrylamide]: the figures for the concentration for 50% growth inhibition (GI50) in experiment [1], in experiment [2] (group less than 100 nmol/L) and in experiment [3] were under 3 µM, under 0.1 µM and under 1 µM, respectively.
The like results for `C=CC(=O)N[C@@H]1CC[C@H](Oc2ccc(C(F)(F)F)cc2)c2ncc(Cl)cc21` (relative stereo) [Compound 190, N-((5R*,8S*)-3-Chloro-8-(4-(trifluoromethyl)phenoxy)-5,6,7,8-tetrahydroquinolin-5-yl)acrylamide] were, in that order, under 3 µM, under 0.1 µM and under 1 µM.
The like results for `C=CC(=O)NC1CCOc2cc(Oc3ccc(C(F)(F)F)cc3)ccc21` (stereo not shown) [Compound 5, N-[7-{4-(trifluoromethyl)phenoxy}chroman-4-yl]acrylamide] were, in that order, under 3 µM, under 0.1 µM and under 1 µM.
On to `C=CC(=O)NC1CCOc2c1ccc(Oc1ccc(C(F)(F)F)cc1)c2C` (stereo not shown) [Compound 28, N-[8-Methyl-7-{4-(trifluoromethyl)phenoxy}chroman-4-yl]acrylamide], for which the results for the GI50 in experiment [1], in experiment [2] (group less than 100 nmol/L) and in experiment [3] were under 3 µM, under 0.1 µM and under 1 µM, respectively.
Taken in the same sequence, the figures for `C=CC(=O)Nc1cncc(Oc2cccc(C(F)(F)F)c2)c1` [Compound 95, N-[5-{3-(Trifluoromethyl)phenoxy}pyridin-3-yl]acrylamide] were under 3 µM, under 0.1 µM and under 1 µM.
Taken in the same sequence, the figures for `C=CC(=O)Nc1cncc(Oc2ccc(C(F)(F)F)cc2)c1` [Compound 96, N-[5-{4-(Trifluoromethyl)phenoxy}pyridin-3-yl]acrylamide] were under 3 µM, under 0.1 µM and under 1 µM.
As to `C=CC(=O)Nc1cncc(Oc2cncc(C(F)(F)F)c2)c1` [Compound 107, N-(5-[{5-(Trifluoromethyl)pyridin-3-yl}oxy]pyridin-3-yl)acrylamide], the GI50 in experiment [1] is under 3 µM; in experiment [2] (group less than 100 nmol/L) it was under 0.1 µM; in experiment [3], under 1 µM.
Taken in the same sequence, the figures for `C=CC(=O)Nc1cncc(Oc2ccnc(C(F)(F)F)c2)c1` [Compound 108, N-(5-[{2-(Trifluoromethyl)pyridin-4-yl}oxy]pyridin-3-yl)acrylamide] were under 3 µM, under 0.1 µM and under 1 µM.
Taken in the same sequence, the figures for `C=CC(=O)Nc1ccc(Oc2ccccc2)c2ncccc12` [Compound 111, N-(8-Phenoxyquinolin-5-yl)acrylamide] were under 3 µM, under 0.1 µM and under 1 µM.
Taken in the same sequence, the figures for `C=CC(=O)Nc1ccc(Oc2ccccc2)c2nc(C)ccc12` [Compound 112, N-(2-Methyl-8-phenoxyquinolin-5-yl)acrylamide] were under 3 µM, under 0.1 µM and under 1 µM.
Turning to `C=CC(=O)Nc1ccc(Oc2cccc(Cl)c2)c2ncccc12` [Compound 114, N-{8-(3-Chlorophenoxy)quinolin-5-yl}acrylamide], the GI50 is under 3 µM in experiment [1], under 0.1 µM in experiment [2] (group less than 100 nmol/L) and under 1 µM in experiment [3].
The like results for `C=CC(=O)Nc1ccc(Oc2ccc(Cl)cc2)c2nc(C)ccc12` [Compound 117, N-{8-(4-Chlorophenoxy)-2-methylquinolin-5-yl}acrylamide] were, in that order, under 3 µM, under 0.1 µM and under 1 µM.
On to `C=CC(=O)Nc1ccc(OCC2CCC(F)(F)CC2)c2ncccc12` [Compound 126, N-[8-{(4,4-Difluorocyclohexyl)methoxy}quinolin-5-yl]acrylamide], for which the figures for the concentration for 50% growth inhibition (GI50) in experiment [1], in experiment [2] (group less than 100 nmol/L) and in experiment [3] were under 3 µM, under 0.1 µM and under 1 µM, respectively.
The like results for `C=CC(=O)NCc1ccc(Oc2ccc(Cl)cc2)c2ncccc12` [Compound 134, N-[{8-(4-Chlorophenoxy)quinolin-5-yl}methyl]acrylamide] were, in that order, under 3 µM, under 0.1 µM and under 1 µM.
On to `C=CC(=O)NC1COc2c(cc(C(F)(F)F)cc2Oc2ccc(C(F)(F)F)nc2)C1` (stereo not shown) [Compound 162, N-{6-(Trifluoromethyl)-8-[{6-(trifluoromethyl)pyridin-3-yl}oxy]chroman-3-yl}acrylamide], for which the GI50 is 0.1 to 1 µM in experiment [2] (setting [4]) and under 1 µM in experiment [3].
For the compound `C=CC(=O)NCc1ccc(Oc2ccc(C(F)(F)F)cc2)c2cccnc12` [Compound 216, N-([5-{4-(Trifluoromethyl)phenoxy}quinolin-8-yl]methyl)acrylamide], the figures for the GI50 in experiment [2] (group less than 100 nmol/L) and in experiment [3] were under 0.1 µM and under 1 µM, respectively.
Take `C=CC(=O)NCc1ccc(Oc2ccc(C(F)(F)F)nc2)c2cccnc12` [Compound 219, N-{(5-[{6-(Trifluoromethyl)pyridin-3-yl}oxy]quinolin-8-yl)methyl}acrylamide]: the GI50 is under 0.1 µM in experiment [2] (group less than 100 nmol/L) and under 1 µM in experiment [3].
As for `C=CC(=O)NCc1cc(Oc2ccc(C(F)(F)F)cc2)cc2ncccc12` [Compound 220, N-([7-{4-(Trifluoromethyl)phenoxy}quinolin-5-yl]methyl)acrylamide], the GI50 in experiment [2] (setting [4]) is 0.1 to 1 µM; in experiment [3], under 1 µM.
`C=CC(=O)NC1COc2c(cccc2Oc2ccc(C(F)(F)F)nc2)C1` (stereo not shown) [Compound 229, N-(8-[{6-(Trifluoromethyl)pyridin-3-yl}oxy]chroman-3-yl)acrylamide]: the GI50 in experiment [2] (group less than 100 nmol/L) was under 0.1 µM; in experiment [3] it was under 1 µM.

Values taken from US11332455B2, “α,β-unsaturated amide compound” (KYOWA KIRIN CO., LTD., priority 2015, dated 2022).
